Consider 20 molecules from patent publication US5789434A, “Derivatives of substituted 4-biarylbutyric acid as matrix metalloprotease inhibitors” (priority 1995, dated 1998).

Assay type in all cases: biochemical
Assay [1] addresses T1, MMP-3 (Homo sapiens, UniProt P08254).
T1 construct: Truncated Prostromelysin-257 was expressed in a soluble form in E.coli; made in house; host or cells: E. coli
The experiment in a line: Primary Thiopeptilide MMP-3 Inhibition Assay. Particulars: for pIC50: pH 6.5, 13 nM stromelysin, x (n) = average of n determinations, read-out: MMP-3 Thiopep. IC50.
Method: Enzyme: recombinant stromelysin expressed in E.coli and purified as described above. […] The protocols for the assay of compounds as stromelysin inhibitors was the same as that used for MMP-9 except that the assay buffer was 50 mM MES, pH 6.5 containing 150 mM NaCl, 10 mM CaCl2, 0.005% Brij, and 1% DMSO.

In assay [2] the target is T2, MMP-9 (Homo sapiens, UniProt P14780).
T2 construct: from tissue; host or cells: human polymorphonuclear leukocytes (PMN) from whole blood (New York Blood Center), PMA-stimulated supernatant
Kind of assay: Thiopeptilide MMP-9 Inhibition Assay. Particulars: for pIC50: pH 6.5, x (n) = average of n determinations, read-out: MMP-9: Thiopep. IC50; for inhibition at 5 µM: read-out: MMP-9: Thiopep. % inhibition.

The target of assay [3] is T1, MMP-3. Kind of assay: Secondary P218 Quenched fluorescence Assay for MMP-3 Inhibition. The note with it: P218 substrate, pH 6.5, 25° C.; x (n) = average of n determinations; read-out: MMP-3 Fluorogenic IC50. The protocol: Truncated Prostromelysin-257 was expressed in a soluble form in E.coli as described by Marcy et al., Biochemistry, 30, 6476-6483, 1991. Soluble truncated prostromelysin was purified by a modification of the monoclonal antibody affinity chromatography method described by Housley et al., J. Biol. Chem., 268, 4481-87, 1993.
The assay is run continuously in a 3.0 ml cuvette using a Perkin-Elmer LS 50 B Spectrofluorimeter at 25° C. in a final volume of 2.0 mls. P218 substrate (10 mM) in 100% DMSO is diluted to a final concentration of 2.0 micromolar (μM) into assay buffer: 50 mM MES, pH 6.5 containing 150 mM NaCl, 10 mM CaCl2, 0.005% Brij-35, and 1%(v/v) DMSO. Test compounds(10 mM) in DMSO are diluted in assay buffer at an initial concentration of 10 to 100 micromolar. […] The reaction is initiated by the addition of recombinant stromelysin (MMP-3) at a final concentration of 1.0 nM. Upon peptide cleavage, the fluorescent MCA group was detected using an excitation wavelength of 328 nanometers and an emission wavelength of 393 nanometers.

Assay [4] concerns the target T1, MMP-3. The experiment in a line: Automated MMP Profiling Assay, MMP-3 fluorogenic. The note with it: for pIC50: 96-well automated, P218. The text has this: This assay with each invention compound was run with the three enzymes MMP-3, MMP-9 and MMP-2 in parallel as adapted for a 96-well microtitre plate using a Hamilton A® workstation.
For assay [5], the target named is T2, MMP-9. The experiment in a line: Automated MMP Profiling Assay, MMP-9 fluorogenic. Particulars: for pIC50: 96-well automated, P218.
Assay [6] addresses T3, MMP-2 (Homo sapiens, UniProt P08253).
T3 sequence (P08253 110-660): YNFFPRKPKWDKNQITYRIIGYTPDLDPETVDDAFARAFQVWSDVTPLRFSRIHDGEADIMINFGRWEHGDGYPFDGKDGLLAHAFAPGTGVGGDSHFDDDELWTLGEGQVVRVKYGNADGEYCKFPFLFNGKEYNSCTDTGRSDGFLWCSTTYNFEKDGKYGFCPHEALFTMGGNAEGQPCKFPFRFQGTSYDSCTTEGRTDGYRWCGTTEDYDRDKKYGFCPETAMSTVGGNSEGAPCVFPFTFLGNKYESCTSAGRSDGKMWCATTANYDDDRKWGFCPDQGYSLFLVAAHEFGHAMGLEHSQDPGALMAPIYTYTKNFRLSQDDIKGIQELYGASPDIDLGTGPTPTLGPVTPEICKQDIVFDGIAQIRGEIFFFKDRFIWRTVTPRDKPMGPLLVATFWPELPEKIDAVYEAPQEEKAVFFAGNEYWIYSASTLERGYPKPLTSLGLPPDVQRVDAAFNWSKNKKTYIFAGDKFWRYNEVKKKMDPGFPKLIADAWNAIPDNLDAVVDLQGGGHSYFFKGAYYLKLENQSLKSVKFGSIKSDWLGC
Kind of assay: Automated MMP Profiling Assay, MMP-2 fluorogenic. Particulars: for pIC50: 96-well automated, P218, read-out: MMP-2 Fluorogenic IC50 (profiling).

pIC50: −log10 of the molar value.

T2 sequence (P14780 107-707 limits assumed): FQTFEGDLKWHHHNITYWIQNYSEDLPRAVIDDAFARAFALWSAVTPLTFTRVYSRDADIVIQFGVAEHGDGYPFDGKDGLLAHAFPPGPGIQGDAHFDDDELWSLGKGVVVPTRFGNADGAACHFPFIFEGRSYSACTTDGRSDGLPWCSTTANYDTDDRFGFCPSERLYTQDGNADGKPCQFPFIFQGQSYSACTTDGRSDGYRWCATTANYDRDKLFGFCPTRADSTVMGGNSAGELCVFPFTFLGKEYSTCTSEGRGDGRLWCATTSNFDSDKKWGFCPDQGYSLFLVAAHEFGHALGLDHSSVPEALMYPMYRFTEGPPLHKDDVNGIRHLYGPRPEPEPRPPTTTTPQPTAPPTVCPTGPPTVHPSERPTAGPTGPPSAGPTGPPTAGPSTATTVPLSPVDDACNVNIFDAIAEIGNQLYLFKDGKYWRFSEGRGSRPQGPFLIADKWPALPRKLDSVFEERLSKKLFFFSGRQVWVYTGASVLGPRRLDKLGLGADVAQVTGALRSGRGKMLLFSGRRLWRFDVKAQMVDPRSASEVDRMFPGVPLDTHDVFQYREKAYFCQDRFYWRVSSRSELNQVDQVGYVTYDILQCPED
T1 sequence (P08254 100-274 limits assumed): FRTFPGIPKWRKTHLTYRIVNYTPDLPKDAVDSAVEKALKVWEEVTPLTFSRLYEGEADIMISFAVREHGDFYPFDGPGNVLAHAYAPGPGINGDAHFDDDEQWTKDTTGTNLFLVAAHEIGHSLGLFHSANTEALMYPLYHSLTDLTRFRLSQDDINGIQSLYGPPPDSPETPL

`CC(C)CC(CC(=O)c1ccc(-c2ccc(I)cc2)cc1)C(=O)O` (stereo not drawn) [Example 41, [1,1'-Biphenyl]-4-butanoic acid, 4'-iodo-α-(2-methylpropyl)-γ-oxo-]: the pIC50 (commonly the IC50 on a negative log10 scale, so that one unit is a factor of ten) is 6.93 in assay [1], 6.30 in assay [2] and 6.59 in assay [3].
As to `CC(C)CC(CC(=O)O)C(=O)c1ccc(-c2ccc(Cl)cc2)cc1` (single isomer, unassigned) [Example 4, 5-methyl-3-[oxo-(4'-chloro-4-biphenyl)methyl]hexanoic acid], the pIC50 was 6.42 in assay [1], 5.57 in assay [2] and 6.32 in assay [3].
In the case of `CC(C)CC(CC(=O)c1ccc(-c2ccc(Cl)cc2)cc1)C(=O)O` (stereo not drawn) [Example 1, [1,1'-Biphenyl]-4-butanoic acid, 4'-chloro-α-(2-methylpropyl)-γ-oxo-], the pIC50 in assay [1] was 6.31; in assay [2] it was 6.00; in assay [3] it was 6.09.
`O=C(CC(Cc1ccccc1)C(=O)O)c1ccc(-c2ccc(Cl)cc2)cc1` (stereo not drawn) [Example 131, [1,1'-Biphenyl]-4-butanoic acid, 4'-chloro-γ-oxo-α-(phenylmethyl)-]: the figures for the pIC50 in assay [1] and in assay [3] were 6.51 and 6.05, respectively.
In the case of `O=C(C[C@@H](CCCc1ccccc1)C(=O)O)c1ccc(-c2ccc(Cl)cc2)cc1` [Example 115, 4-[4-(4-chlorophenyl)phenyl]-4-oxo-2R-(3-phenylpropyl)butanoic acid], the inhibition (usually how much of the control response was suppressed) at 5 µM stood at 39% in assay [1] (at 5 μM, read-out: MMP-3 Thiopep. % inhibition) and 31% in assay [2]. The pIC50 in assay [4] was less than 5.90; in assay [5], less than 5.90; in assay [6], 5.76.
For the molecule `CC(C)(C)C(=O)SCC(CC(=O)c1ccc(-c2ccc(Cl)cc2)cc1)C(=O)O` (single isomer, unassigned) [Example 194, [1,1'-Biphenyl]-4-butanoic acid, 4'-chloro-α-[[(2,2-dimethyl-1-oxopropyl)thio]methyl]-γ-oxo-], the pIC50 in assay [1] was 6.94; in assay [2], 6.12; in assay [3], 7.21.
Take `CC(C)CC(CC(=O)c1ccc(-c2ccc(Br)cc2)cc1)C(=O)O` (stereo not drawn) [Example 14, [1,1'-Biphenyl]-4-butanoic acid, 4'-bromo-α-(2-methylpropyl)-γ-oxo-]: the pIC50 is 6.36 in assay [1], 5.92 in assay [2] and 6.24 in assay [3].
`CCCCCC(CC(=O)c1ccc(-c2ccc(Cl)cc2)cc1)C(=O)O` (stereo not drawn) [Example 26, [1,1'-Biphenyl]-4-butanoic acid, 4'-chloro-γ-oxo-α-pentyl-]: the pIC50 in assay [1] is 6.21; in assay [2] it was 5.37; in assay [3], 6.62.
Take `CCCCCOc1ccc(-c2ccc(C(=O)CC(CCCc3ccccc3)C(=O)O)cc2)cc1` (stereo not shown) [Example 85, 4-[4-(4-pentyloxyphenyl)phenyl]-4-oxo-2-(3-phenylpropyl)butanoic acid]: the pIC50 in assay [1] was 7.43; in assay [4], 7.10; in assay [5], 6.12; in assay [6], 7.49. For the same molecule, in assay [2], the inhibition at 5 µM is 44%.
Regarding `O=C(O)[C@@H]1[C@@H](Sc2ccccc2)CC[C@H]1C(=O)c1ccc(-c2ccc(Cl)cc2)cc1` [Example 297, (1R,2S,5R)-trans-5-[4-(4-chlorophenyl)phenylcarbonyl]-trans-2-phenylthiocyclopentanecarboxylic acid], the pIC50 is 5.24 in assay [4], 6.19 in assay [2], 5.63 in assay [5] and 5.68 in assay [6].
Regarding `CCCCNC(=O)c1cccc(CCC(CC(=O)c2ccc(-c3ccc(Cl)cc3)cc2)C(=O)O)c1` (stereo not drawn) [Example 150, [1,1'-Biphenyl]-4-butanoic acid, α-[2-[3-[(butylamino)carbonyl]phenyl]ethyl]-4'-chloro-γ-oxo-], the figures for the pIC50 in assay [4], in assay [5] and in assay [6] were 6.43, 6.02 and 6.70, respectively.
With `CCCCOc1ccc(-c2ccc(C(=O)CC(CCc3ccccc3)C(=O)O)cc2)cc1` (stereo not drawn) [Example 160, [1,1'-Biphenyl]-4-butanoic acid, 4'-butoxy-γ-oxo-α-(2-phenylethyl)-], the pIC50 is 6.83 in assay [4], 5.97 in assay [5] and 7.38 in assay [6].
On to `CC(=O)O[C@@H]1C[C@H](C(=O)c2ccc(-c3ccc(Cl)cc3)cc2)[C@H]1C(=O)O` (relative stereo) [Example 396, Cyclobutanecarboxylic acid, 2-(acetyloxy)-4-[(4'-chloro[1,1'-biphenyl]-4-yl)carbonyl]-, (1α,2β,4β)-], for which the pIC50 in assay [4] was 6.11; in assay [5] it was 5.64; in assay [6], 6.44.
In the case of `CC(C)(C)CC(=O)N1CC[C@H](C(=O)c2ccc(-c3ccc(Cl)cc3)cc2)[C@H]1C(=O)O` [Example 171, L-Proline, 3-[(4'-chloro[1,1'-biphenyl]-4-yl)carbonyl]-1-(3,3-dimethyl-1-oxobutyl)-, trans-], the pIC50 in assay [4] was 6.18; in assay [5], 5.45; in assay [6], 6.34.
The like results for `O=C(CC(CCCc1ccccc1)C(=O)O)c1ccc(-c2ccc(OCc3ccncc3)cc2)cc1` (stereo not drawn) [Example 111, [1,1'-Biphenyl]-4-butanoic acid, γ-oxo-α-(3-phenylpropyl)-4'-(4-pyridinylmethoxy)-] were, in that order, 7.74, 5.33 and 8.41.
Turning to `CCN(CC)C(=O)c1cccc(CCC(CC(=O)c2ccc(-c3ccc(OCc4ccccc4)cc3)cc2)C(=O)O)c1` (stereo not drawn) [Example 165, [1,1'-Biphenyl]-4-butanoic acid, α-[2-[3-[(diethylamino)carbonyl]phenyl]ethyl]-γ-oxo-4'-(phenylmethoxy)-], the pIC50 in assay [4] was 7.89; in assay [5], 7.26; in assay [6], 8.52.
As to `CCCCCCc1ccc(-c2ccc(CCC(CCCc3ccccc3)C(=O)O)cc2)cc1` (stereo not drawn) [Example 357, [1,1'-Biphenyl]-4-butanoic acid, 4'-hexyl-α-(3-phenylpropyl)-], the inhibition at 5 µM was 15% in assay [4] (at 5 μM), 4% in assay [5] and 38% in assay [6] (at 5 μM).
On to `CCCCCOc1ccc(-c2ccc(C(=O)[C@H]3CC[C@H](Sc4ccccc4)[C@@H]3C(=O)O)cc2)cc1` (relative stereo) [Example 317, Cyclopentanecarboxylic acid, 2-[[4'-(pentyloxy)[1,1'-biphenyl]-4-yl]carbonyl]-5-(phenylthio)-, (1α,2β,5α)-], for which the pIC50 in assay [4] is 7.12; in assay [5] it was 6.09; in assay [6], 7.43.
For `CC(C)COc1ccc(-c2ccc(C(=O)CC(CCCc3ccccc3)C(=O)O)cc2)cc1` (stereo not drawn) [Example 94, [1,1'-Biphenyl]-4-butanoic acid, 4'-(2-methylpropoxy)-γ-oxo-α-(3-phenylpropyl)-], in that order: 6.65, 5.73 and 6.81.
Regarding `O=C(CC(CCCc1ccccc1)C(=O)O)c1ccc(-c2ccc(CCc3ccccc3)cc2)cc1` (stereo not drawn) [Example 359, [1,1'-Biphenyl]-4-butanoic acid, 4'-γ-oxo-4'-(2-phenylethyl)-α-(3-phenylpropyl)-], the pIC50 is 7.08 in assay [4] and 7.29 in assay [6]. The inhibition at 5 µM in assay [5] stood at 16%.
